Experiment in all cases: relative viability (nuclei count vs DMSO), 5 days (fraction); higher = more cells survive
Compound in assay [1]: C1COCCN1C2=NC(=NC3=C2OC4=C3C=CC=N4)C5=CC(=CC=C5)NC(=O)C6=CN=C(C=C6)N + O=C(c1cc(Cc2n[nH]c(=O)c3ccccc23)ccc1F)N1CCN(C(=O)C2CC2)CC1 [Olaparib] (partner 8 µM)
An outline of the steps: (§1)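 After 5 days of treatment, lung cancer cells in 1536-well plates were fixed and stained in a single step (final 0.05% Triton X-100, 1% formaldehyde, 1 ug/ml Hoechst) and their nuclei counted on 4× images. Treatment had been applied by pin tool the day after seeding as one drug alone or as a fixed anchor-drug dose with five library-drug doses (not always all listed) in √10 steps. Relative viability is the nuclei count of treated wells divided by that of vehicle wells, and values are medians of duplicate plates.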

Compound in assay [2]: Nc1ccccc1NC(=O)c1ccc(CNC(=O)OCc2cccnc2)cc1 [Entinostat] + Nc1ncn([C@H]2C[C@H](O)[C@@H](CO)O2)c(=O)n1 [Decitabine] (partner 2 µM)
An outline of the steps: as §1

Compound in assay [3]: CN1CCC(CNc2ccc3ncc(-c4cccc(OC(F)(F)F)c4)n3n2)CC1 [SGI-1776] + COc1cc2c(Oc3ccc(NC(=O)C4(C(=O)Nc5ccc(F)cc5)CC4)cc3F)ccnc2cc1OCCCN1CCOCC1 [Foretinib] (partner 0.25 µM)
Summed up: as §1

Compound in assay [4]: CN1CCC(CNc2ccc3ncc(-c4cccc(OC(F)(F)F)c4)n3n2)CC1 [SGI-1776] + CC(=O)c1c(C)c2cnc(Nc3ccc(N4CCNCC4)cn3)nc2n(C2CCCC2)c1=O [Palbociclib] (partner 0.5 µM)
An outline of the steps:
as §1

Take NCI-H1650: the relative viability in assay [1] (first compound 0.02 µM) was 0.72; in assay [1] (first compound 0.06325 µM), 0.903; in assay [1] (first compound 0.2 µM) it was 0.757; in assay [1] (first compound 0.6325 µM), 0.88; in assay [1] (first compound 2 µM), 0.591; in assay [2] (first compound 0.02 µM) it was 0.381. Further, the relative viability was found to be 0.394 in assay [2] (first compound 0.06325 µM); 0.43 in assay [2] (first compound 0.2 µM); 0.258 in assay [2] (first compound 0.6325 µM); 0.273 in assay [2] (first compound 2 µM); 1.02 in assay [3] (first compound 0.08 µM); 0.974 in assay [3] (first compound 0.8 µM). Moreover, the relative viability in assay [3] (first compound 2.53 µM) came to 0.729; in assay [3] (first compound 8 µM) it was 0.447; in assay [4] (first compound 0.08 µM), 0.373; in assay [4] (first compound 0.8 µM), 0.354; in assay [4] (first compound 2.53 µM) it was 0.344; in assay [4] (first compound 8 µM), 0.228.

As to NCI-H1651, the relative viability in assay [1] (first compound 0.02 µM) was 0.177; in assay [1] (first compound 0.06325 µM) it was 0.18; in assay [1] (first compound 0.2 µM) it was 0.195; in assay [1] (first compound 0.6325 µM), 0.171; in assay [1] (first compound 2 µM) it was 0.161; in assay [2] (first compound 0.02 µM) it was 0.666. Also, the relative viability in assay [2] (first compound 0.06325 µM) came to 0.824; in assay [2] (first compound 0.2 µM) it was 0.609; in assay [2] (first compound 0.6325 µM), 0.558; in assay [2] (first compound 2 µM), 0.19; in assay [3] (first compound 0.08 µM) it was 0.787; in assay [3] (first compound 0.8 µM) it was 0.75. Moreover, the relative viability in assay [3] (first compound 2.53 µM) stood at 0.985; in assay [3] (first compound 8 µM), 0.794; in assay [4] (first compound 0.08 µM), 0.504; in assay [4] (first compound 0.8 µM), 0.497; in assay [4] (first compound 2.53 µM), 0.522; in assay [4] (first compound 8 µM) it was 0.439.

For the cell line NCI-H1666, the relative viability in assay [1] (first compound 0.02 µM) was determined as 0.757; in assay [1] (first compound 0.06325 µM), 0.74; in assay [1] (first compound 0.2 µM), 0.729; in assay [1] (first compound 0.6325 µM) it was 0.804; in assay [1] (first compound 2 µM), 0.755; in assay [2] (first compound 0.02 µM), 0.887. Besides, the relative viability in assay [2] (first compound 0.06325 µM) was 0.793; in assay [2] (first compound 0.2 µM) it was 0.707; in assay [2] (first compound 0.6325 µM) it was 0.669; in assay [2] (first compound 2 µM) it was 0.511; in assay [3] (first compound 0.08 µM), 0.975; in assay [3] (first compound 0.8 µM) it was 0.956. The relative viability in assay [3] (first compound 2.53 µM) stood at 0.948; in assay [3] (first compound 8 µM), 0.914; in assay [4] (first compound 0.08 µM), 0.64; in assay [4] (first compound 0.8 µM), 0.66; in assay [4] (first compound 2.53 µM), 0.614; in assay [4] (first compound 8 µM), 0.663.

As for NCI-H1734, the relative viability in assay [1] (first compound 0.02 µM) was 0.645; in assay [1] (first compound 0.06325 µM), 0.646; in assay [1] (first compound 0.2 µM), 0.611; in assay [1] (first compound 0.6325 µM), 0.564; in assay [1] (first compound 2 µM), 0.496; in assay [2] (first compound 0.02 µM), 0.555. Moreover, the relative viability in assay [2] (first compound 0.06325 µM) came out at 0.483; in assay [2] (first compound 0.2 µM), 0.464; in assay [2] (first compound 0.6325 µM), 0.451; in assay [2] (first compound 2 µM), 0.298; in assay [3] (first compound 0.08 µM), 0.786; in assay [3] (first compound 0.8 µM), 0.913. Also, the relative viability in assay [3] (first compound 2.53 µM) came to 0.927; in assay [3] (first compound 8 µM) it was 0.483; in assay [4] (first compound 0.08 µM), 0.387; in assay [4] (first compound 0.8 µM), 0.339; in assay [4] (first compound 2.53 µM), 0.345; in assay [4] (first compound 8 µM), 0.283.

Consider NCI-H1755, for which the relative viability in assay [1] (first compound 0.02 µM) was determined as 0.875; in assay [1] (first compound 0.06325 µM), 0.922; in assay [1] (first compound 0.2 µM) it was 0.92; in assay [1] (first compound 0.6325 µM), 0.702; in assay [1] (first compound 2 µM), 0.594; in assay [2] (first compound 0.02 µM) it was 0.681. For the same cell line, the relative viability came out at 0.71 in assay [2] (first compound 0.06325 µM); 0.583 in assay [2] (first compound 0.2 µM); 0.494 in assay [2] (first compound 0.6325 µM); 0.45 in assay [2] (first compound 2 µM); 0.949 in assay [3] (first compound 0.08 µM); 0.931 in assay [3] (first compound 0.8 µM). Moreover, the relative viability in assay [3] (first compound 2.53 µM) worked out at 0.881; in assay [3] (first compound 8 µM), 0.854; in assay [4] (first compound 0.08 µM) it was 0.461; in assay [4] (first compound 0.8 µM), 0.444; in assay [4] (first compound 2.53 µM), 0.438; in assay [4] (first compound 8 µM) it was 0.438.

(Values after the supplement of paper PMC10307832.)
